# System: tactile allodynia induced in a hind paw by surgical lesion of the sciatic nerve
# Experiment: Anti-allodynic effect in the spared nerve injury (SNI) model of neuropathic pain in mice after oral administration
# Assay type: in vivo, male C57B6 mice
# Settings: for Mean PWT (paw withdrawal threshold) ± SEM / DeltaAUC1 h-6 h of PWL (mean ± SEM): N=4; for Statistical evaluation vs. control (DeltaAUC1 h-6 h): 1-way ANOVA & Dunnett; for DeltaAUC1 h-6 h of PWL (mean ± SEM): AUC contralateral minus ipsilateral paws, 1 h to 6 h after administration
# Procedure: In this in vivo mouse model of chronic neuropathic pain the effect on tactile allodynia, a painful sensation after a normally not painful mechanical stimulus, which had been induced in a hind paw by surgical lesion of the sciatic nerve, was determined by measuring the paw withdrawal threshold (PWT), i.e. the exerted force (expressed in grams) at which the mouse withdrew its hind paw.
# Tactile allodynia was determined at both hind paws, i.e. ipsilateral and contralateral to the lesion if determined subsequent to surgery, with the automatic von Frey test in which the plantar skin of the hind paws was exposed to a pressure stimulus of increasing intensity up to 5 grams using a dump needle stick. The force in grams at which the animal responded withdrawal of the hind paw (paw withdrawal threshold, PWT), was used as a measure of tactile allodynia.
# Two test groups and one control group of animals were used each consisting of four male C57B6 mice. In all groups, baseline PWT values (BL) were determined before surgery. For induction of neuropathic pain then, under general anesthesia, in all groups the two major branches of the sciatic nerve were ligated and transected, with the sural nerve left intact (spared nerve injury, SNI). In this model of neuropathic pain, tactile allodynia developed completely within two days after nerve transection in the hind paw ipsilateral to the lesion and remained stable in the control group over the complete observation period of the experiment.
# 7 days after surgery, immediately before administration of the test compound, i.e. at the time 0 h, in all groups PWT values were determined for the injured ipsilateral hind paw and the non-injured contralateral hind paw. Then either the test compound or vehicle was administered to the animals orally by gavage. In the test groups, mice received 100 μl/10 g body weight of a suspension of the test compound in vehicle MC/T80 comprising 0.3 mg/ml or 3 mg/ml (prepared as described in pharmaceutical example A) for attaining a dosage of 3 mg/kg body weight and 30 mg/kg body weight, respectively. In the control group, mice analogously received 100 μl/10 g body weight of vehicle MC/T80. 1 h, 2 h, 4 h and 6 h after administration, PWT values were determined.
# The given PWT values (in grams) are the mean±SEM (standard error of the mean) of the PWT measurements performed with the ipsilateral hind paw and the contralateral hind paw, respectively, of each animal of the indicated group (N (number of animals)=4) at the time points 0 h (i.e. before administration of test compound or vehicle) and 1 h, 2 h, 4 h and 6 h after administration of test compound or vehicle, as well as the baseline PWT values (BL) determined before surgery.
# For the statistical analysis, PWT values were used in two ways, first with a 2-way ANOVA test based on the PWT values and second with a 1-way ANOVA test based on area under the curve (AUC) values for the time period of 6 h after application of the test compound or vehicle. A repeated measures 2-way ANOVA test (factor treatment and repeated measures factor time) was performed on PWT measurements. In case the interaction (treatment×time) was statistically significant, a Winer complementary analysis was done to investigate the effect of treatment for each time point. A Dunnett's test was used to study the potential differences between the control group and the test groups.
# As a quantitative measure of the efficacy of a test compound over an extended time period, the area under the curve (AUC) of the individual PWT values for the time period from 1 h to 6 h after administration of test compound or vehicle (AUC1 h-6 h) was determined for the ipsilateral paws of each group and the obtained value subtracted from the value determined for the contralateral paws of the same group to give DeItaAUC1 h-6 h values for each group. […]
structure (smiles),measurement,setting,value
"O=C(Nc1ccc(S(=O)(=O)N2CCOCC2)cc1)c1cc(Cl)ccc1NS(=O)(=O)c1ccc(Cl)s1.[Na] [Example 94, 5-Chloro-2-(5-chloro-thiophene-2-sulfonylamino)-N-(4-(morpholine-4-sulfonyl)-phenyl)-benzamide sodium salt]",Mean PWT (paw withdrawal threshold) ± SEM,"3 mg/kg body weight group, BL baseline before surgery",4.75 grams
same,Mean PWT (paw withdrawal threshold) ± SEM,"3 mg/kg body weight group, injured ipsilateral paw, 0 h (before administration)",1.58 grams
same,Mean PWT (paw withdrawal threshold) ± SEM,"3 mg/kg body weight group, non-injured contralateral paw, 0 h (before administration)",4.84 ± 0.11 grams
same,Statistical evaluation vs. control (DeltaAUC1 h-6 h),3 mg/kg body weight oral,"*** (significant, p < 0.0001 (ANOVA & Dunnett))"
same,DeltaAUC1 h-6 h of PWL (mean ± SEM),3 mg/kg body weight oral,4.60 ± 1.20
same,"Anti-allodynic effect on PWT vs. control (2-way ANOVA, Dunnett)","3 mg/kg body weight oral, from 1 h to 4 h after administration",Statistically significant ant-allodynic effects
same,Mean PWT (paw withdrawal threshold) ± SEM,"3 mg/kg body weight oral, injured ipsilateral paw, 1 h after administration",2.96 grams
same,Mean PWT (paw withdrawal threshold) ± SEM,"3 mg/kg body weight oral, injured ipsilateral paw, 2 h after administration",4.64 ± 0.11 grams
same,Mean PWT (paw withdrawal threshold) ± SEM,"3 mg/kg body weight oral, injured ipsilateral paw, 4 h after administration",4.12 ± 0.17 grams
same,Mean PWT (paw withdrawal threshold) ± SEM,"3 mg/kg body weight oral, injured ipsilateral paw, 6 h after administration",2.50 ± 0.40 grams
same,Mean PWT (paw withdrawal threshold) ± SEM,"3 mg/kg body weight oral, non-injured contralateral paw, 1 h after administration",4.66 ± 0.14 grams
same,Mean PWT (paw withdrawal threshold) ± SEM,"3 mg/kg body weight oral, non-injured contralateral paw, 2 h after administration",4.95 ± 0.02 grams
same,Mean PWT (paw withdrawal threshold) ± SEM,"3 mg/kg body weight oral, non-injured contralateral paw, 4 h after administration",4.61 ± 0.13 grams
same,Mean PWT (paw withdrawal threshold) ± SEM,"3 mg/kg body weight oral, non-injured contralateral paw, 6 h after administration",4.82 grams
same,Mean PWT (paw withdrawal threshold) ± SEM,"30 mg/kg body weight group, BL baseline before surgery",4.70 grams
same,Mean PWT (paw withdrawal threshold) ± SEM,"30 mg/kg body weight group, injured ipsilateral paw, 0 h (before administration)",1.91 grams
same,Mean PWT (paw withdrawal threshold) ± SEM,"30 mg/kg body weight group, non-injured contralateral paw, 0 h (before administration)",4.69 ± 0.23 grams
same,Statistical evaluation vs. control (DeltaAUC1 h-6 h),30 mg/kg body weight oral,"*** (significant, p < 0.0001 (ANOVA & Dunnett))"
same,DeltaAUC1 h-6 h of PWL (mean ± SEM),30 mg/kg body weight oral,1.52 ± 0.94
same,"Anti-allodynic effect on PWT vs. control (2-way ANOVA, Dunnett)","30 mg/kg body weight oral, from 1 h to 6 h after administration",Statistically significant ant-allodynic effects
same,Mean PWT (paw withdrawal threshold) ± SEM,"30 mg/kg body weight oral, injured ipsilateral paw, 1 h after administration",3.70 grams
same,Mean PWT (paw withdrawal threshold) ± SEM,"30 mg/kg body weight oral, injured ipsilateral paw, 2 h after administration",4.66 ± 0.10 grams
same,Mean PWT (paw withdrawal threshold) ± SEM,"30 mg/kg body weight oral, injured ipsilateral paw, 4 h after administration",4.51 ± 0.17 grams
same,Mean PWT (paw withdrawal threshold) ± SEM,"30 mg/kg body weight oral, injured ipsilateral paw, 6 h after administration",4.24 ± 0.08 grams
same,Mean PWT (paw withdrawal threshold) ± SEM,"30 mg/kg body weight oral, non-injured contralateral paw, 1 h after administration",4.82 ± 0.10 grams
same,Mean PWT (paw withdrawal threshold) ± SEM,"30 mg/kg body weight oral, non-injured contralateral paw, 2 h after administration",4.84 ± 0.10 grams
same,Mean PWT (paw withdrawal threshold) ± SEM,"30 mg/kg body weight oral, non-injured contralateral paw, 4 h after administration",4.70 ± 0.19 grams
same,Mean PWT (paw withdrawal threshold) ± SEM,"30 mg/kg body weight oral, non-injured contralateral paw, 6 h after administration",4.55 grams
same,Improvement of DeltaAUC1 h-6 h over vehicle control (1-way ANOVA),"both dosages, 3 mg/kg and 30 mg/kg body weight oral",significant improvement over the control group

# Reference: US20110021505A1, “Use of sulfonyl-substituted 2-sulfonylaminobenzoic acid N-phenylamides in the treatment of pain” (SANOFI-AVENTIS DEUTSCHLAND GMBH, priority 2007, published 2011)
